# Results taken from patent US8134015B2, “Compound inhibiting in vivo phosphorous transport and medicine containing the same” (Kyowa Hakko Kirin Co., Ltd., priority 2003, dated 2012).
# Where a name gives a salt, the structure may show the parent alone.
# Tests used:
# rat NaPi-2b = biological target: T1, rat NaPi-2b (Rattus norvegicus, UniProt Q9JJ09); assay: Sodium-dependent phosphate uptake of Xenopus oocytes which expressed NaPi-2b (32P); format: cell-based; settings: for IC50: Xenopus oocytes expressing rat NaPi-2b, 32P radioactive phosphorus, read-out: IC50 (phosphate uptake inhibitory activity)
# T1 construct: expressed in transfected cells; host or cells: Xenopus oocytes injected with cRNA
# T1 sequence (Q9JJ09 1-695): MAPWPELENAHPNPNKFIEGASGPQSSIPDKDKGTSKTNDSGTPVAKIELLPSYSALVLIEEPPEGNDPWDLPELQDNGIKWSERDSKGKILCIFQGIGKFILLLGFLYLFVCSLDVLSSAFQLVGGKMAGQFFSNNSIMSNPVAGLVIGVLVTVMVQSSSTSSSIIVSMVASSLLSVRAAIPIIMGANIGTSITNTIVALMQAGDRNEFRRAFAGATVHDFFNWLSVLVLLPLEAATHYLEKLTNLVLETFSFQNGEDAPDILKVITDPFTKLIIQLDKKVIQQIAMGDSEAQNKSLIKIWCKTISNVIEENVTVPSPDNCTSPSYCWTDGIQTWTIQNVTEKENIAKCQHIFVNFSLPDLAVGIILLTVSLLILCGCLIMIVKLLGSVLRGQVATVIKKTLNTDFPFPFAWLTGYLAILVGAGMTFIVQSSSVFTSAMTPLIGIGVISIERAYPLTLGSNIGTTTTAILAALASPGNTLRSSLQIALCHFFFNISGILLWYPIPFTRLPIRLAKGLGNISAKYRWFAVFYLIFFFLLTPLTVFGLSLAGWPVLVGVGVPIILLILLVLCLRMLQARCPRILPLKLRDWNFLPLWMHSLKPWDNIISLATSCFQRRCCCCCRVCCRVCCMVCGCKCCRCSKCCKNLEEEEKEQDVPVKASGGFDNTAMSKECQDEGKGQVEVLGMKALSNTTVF
# Outline: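 Inhibition at 300 μM and 100 μM was read off one inhibition curve of 32P phosphate uptake. Uptake was measured in Xenopus oocytes cultured 2 days after injection of cRNA for cloned rat NaPi-2b.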
# [1] = system: rabbit jejunal brush border membrane vesicles; assay: Sodium-dependent phosphate uptake of rabbit jejunal brush border membrane vesicles (32P, rapid filtration); format: biochemical; settings: FIG. 1
# Description: Pharmacological Test Example 2
# Experiment of Sodium-Dependent Phosphate Uptake of Rabbit Jejunal Brush Border Membrane Vesicles
# (§1) Jejunal epithelium was obtained from New Zealand white male rabbits (7 weeks old, obtained from KITAYAMA LABES Co., Ltd. (Japan)), and brush border membrane vesicles were isolated by the calcium precipitation method described in Kanako Katai et al., J. Biochem. 121, 50-55, 1997, and Peerce, B. E. et al., Biochemistry 26, 4272-4279, 1987. Thereafter, for compound 29 and compound 68, the phosphate uptake inhibitory activity was measured using the same samples with ^32P radioactive phosphorus (manufactured by Daiichi Kagaku Inc. (Japan)) by the rapid filtration method described in Kanako Katai et al., J. Biochem. 121, 50-55, 1997. […] Further, in the same experiment, nonspective inhibitory activity against glucose absorption was determined using 14C-glucose (manufactured by Moravek Biochemical Inc. (US)). […] In both the experiments, a group with the addition of potassium chloride was used as a negative control for nonspecific uptake. All the test results given below were expressed in terms of average value±standard error. Student's t-test was used for a significant test of the control group and the test compound group.
# [2] = system: rabbit jejunal brush border membrane vesicles; assay: Nonspecific inhibitory activity against glucose absorption in rabbit jejunal brush border membrane vesicles (14C-glucose); format: biochemical; settings: FIG. 2
# Experimental: as §1
# human NaPi-2a = biological target: T2, human NaPi-2a (Homo sapiens, UniProt Q06495); assay: Sodium-dependent phosphate uptake of Xenopus oocytes which expressed NaPi-2a (32P); format: cell-based; settings: Xenopus oocytes expressing human NaPi-2a, FIG. 3, FIG. 4
# T2 construct: expressed in transfected cells
# T2 sequence (Q06495 1-639): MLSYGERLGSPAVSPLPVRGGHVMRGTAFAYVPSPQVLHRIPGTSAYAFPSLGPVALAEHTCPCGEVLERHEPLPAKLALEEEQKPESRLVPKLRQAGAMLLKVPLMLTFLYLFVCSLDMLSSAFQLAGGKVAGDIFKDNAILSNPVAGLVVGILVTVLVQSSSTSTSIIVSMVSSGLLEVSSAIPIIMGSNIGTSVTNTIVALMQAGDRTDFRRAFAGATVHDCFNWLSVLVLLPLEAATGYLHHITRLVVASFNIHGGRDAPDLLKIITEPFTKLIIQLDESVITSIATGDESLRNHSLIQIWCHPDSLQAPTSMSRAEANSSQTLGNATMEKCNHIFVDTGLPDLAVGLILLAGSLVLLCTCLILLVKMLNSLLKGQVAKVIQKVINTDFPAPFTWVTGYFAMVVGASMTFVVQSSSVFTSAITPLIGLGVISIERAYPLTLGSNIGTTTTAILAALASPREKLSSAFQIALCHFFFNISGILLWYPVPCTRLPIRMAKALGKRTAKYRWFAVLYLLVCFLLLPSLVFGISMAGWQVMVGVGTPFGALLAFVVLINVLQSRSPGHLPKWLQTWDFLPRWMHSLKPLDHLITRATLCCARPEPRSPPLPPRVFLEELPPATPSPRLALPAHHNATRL
# Description: Experiment of Sodium-Dependent Phosphate Uptake of Xenopus oocytes which Expressed NaPi-2a
# In the test, a group with the addition of choline chloride (Choline Cl) was used as a negative control for nonspecific uptake, and PFA (phosphonoformic acid) was used as a positive control for phosphate transport inhibition.
# SD rats = assay: Inhibitory activity against 32P absorption from intestinal tract; format: in vivo; settings: Rattus norvegicus, oral, read-out: Blood radioactivity inhibition, %
# Experimental: Pharmacological Test Example 4
# Inhibitory Activity Against ^32P Absorption from Intestinal Tract
# SD rats (6 to 7 weeks old, obtained from Charles River Japan, Inc. (Japan)) were raised with low-phosphorus diet (phosphorus content 0.1%, manufactured by Oriental Yeast Co., Ltd. (Japan)) for 3 to 4 days and then fasted for about 24 hr for experiment. ^32P was diluted with purified water or liquid feed (CLEA JAPAN INC. (Japan)) to 0.7 to 3.5 MBq/ml and was forcibly orally administered at a dose of 5 ml/kg (administered into the gaster through an oral probe). The compounds or media were forcibly orally administered at a dose of 5 ml/kg (divided dose of twice), 30 min before the administration of ^32P and simultaneously with the administration of ^32P. Blood was collected from caudal artery 30 min, 45 min, or 60 min after ^32P administration, and blood ^32P radioactivity was measured with a liquid scintillation counter. Inhibition of an increase in blood radioactivity was used as a measure of inhibition of phosphate absorption from the intestinal tract.
# The results are expressed in terms of the percentage inhibition determined by the following equation. (Blood radioactivity for group with the administration of medium−Blood radioactivity for group with the administration of compound)/(Blood radioactivity for group with the administration of medium)×100
# t-Test was used for a significant test of the average value difference of blood radioactivity.
IC50 (rat NaPi-2b) [µM],SMILES,inhibition in vivo at 400 mg/kg (SD rats) [%],further results
0.55,"COc1ccc(C(=O)Nc2ccc(Br)cc2C(=O)N/N=C/c2cccc(F)c2)cc1OC [Compound 29, N-[4-Bromo-2-(3-fluoro-benzylidene-hydrazinocarbonyl)-phenyl]-3,4-dimethoxy-benzamide]",,"phosphate uptake inhibitory activity against NaPi-2b (rat NaPi-2b; Xenopus oocytes, FIG. 4): had inhibitory activity; phosphate uptake inhibitory activity [1]: concentration-dependent inhibitory activity; nonspecific inhibitory activity against glucose absorption [2]: did not have the inhibitory activity; phosphate uptake inhibitory activity against NaPi-2a (human NaPi-2a): had inhibitory activity"
0.22,"COc1ccc(C(=O)Nc2ccc(Cl)cc2C(=O)N/N=C/c2ccc(Cl)c(C(F)(F)F)c2)cc1OC [Compound 88, N-[4-Chloro-2-(4-chloro-3-trifluoromethyl-benzylidene-hydrazinocarbonyl)-phenyl]-3,4-dimethoxy-benzamide]",29.1,
2.43,"Cc1ccc(/C=N/NC(=O)c2ccccc2NC(=O)c2cccnc2)cc1C [Compound 165, N-[2-(3,4-Dimethyl-benzylidene-hydrazinocarbonyl)-phenyl]-nicotinamide hydrochloride]",27.6,
11.4,"O=C(Nc1ccccc1C(=O)N/N=C/c1ccc(F)cc1)c1cccnc1 [Compound 130, N-[2-(4-Fluoro-benzylidene-hydrazinocarbonyl)-phenyl]-nicotinamide]",,inhibition in vivo at 270 mg/kg (SD rats; dose 270 mg/kg): 22.8%
0.36,"COc1ccc(C(=O)Nc2ccc(Cl)cc2C(=O)N/N=C/c2ccc(C)cc2)cc1OC [Compound 68, N-[4-Chloro-2-(4-methyl-benzylidene-hydrazinocarbonyl)-phenyl]-3,4-dimethoxy-benzamide]",,phosphate uptake inhibitory activity [1]: concentration-dependent inhibitory activity; nonspecific inhibitory activity against glucose absorption [2]: did not have the inhibitory activity
3.47,"Cc1cccc(/C=N/NC(=O)c2ccccc2NC(=O)c2ccncc2)c1 [Compound 253, N-[2-(3-Methyl-benzylidene-hydrazinocarbonyl)-phenyl]-isonicotinamide hydrochloride]",39,
0.8,"Cc1ccc(/C=N/NC(=O)c2cc(Cl)ccc2NC(=O)c2cccc(CN3CCC(N4CCCCC4)CC3)c2)cc1C [Compound 372, 3-[1,4′]Bipiperidinyl-1′-ylmethyl-N-[4-chloro-2-(3,4-dimethyl-benzylidene-hydrazinocarbonyl)-phenyl]-benzamide]",,inhibition in vivo at 100 mg/kg (SD rats): 63.7%
0.26,"COc1ccc(C(=O)Nc2ccc(Cl)cc2C(=O)N/N=C/c2ccc(C)c(C)c2)cc1OC [Compound 92, N-[4-Chloro-2-(3,4-dimethyl-benzylidene-hydrazinocarbonyl)-phenyl]-3,4-dimethoxy-benzamide]",,inhibition in vivo at 160 mg/kg (SD rats; dose 160 mg/kg): 25.5%
0.9,"CCN(CC)CCN(C)Cc1ccc(C(=O)Nc2ccc(Br)cc2C(=O)N/N=C/c2ccc(C)cc2)cc1 [Compound 285, N-[4-Bromo-2-(4-methyl-benzylidene-hydrazinocarbonyl)-phenyl]-4-{[(2-diethylamino-ethyl)-methyl-amino]-methyl}-benzamide]",,inhibition in vivo at 80 mg/kg (SD rats; dose 80 mg/kg): 60.3%
9.02,"COc1cccc(/C=N/NC(=O)c2cc(Br)ccc2NC(=O)c2ccc(CN3CCC(N4CCCCC4)CC3)cc2)c1 [Compound 315, 4-[1,4′]Bipiperidinyl-1′-ylmethyl-N-[4-bromo-2-(3-methoxy-benzylidene-hydrazinocarbonyl)-phenyl]-benzamide]",,inhibition in vivo at 100 mg/kg (SD rats): 42.4%
